Source: patent US5808100A, “Chromene compounds and photochromic materials” (Tokuyama Corporation, priority 1995, dated 1998)

Legend:
[1] = Photochromic properties of polymer (2 mm thick) containing the chromene compound, xenon lamp irradiation 120 seconds; format: physicochemical; set-up: key to Color density ε(120)-ε(0): absorbance at λmax after 120 s irradiation minus before, ε(120)-ε(0); details: for Color density ε(120)-ε(0): 120 seconds irradiation, 20° C.±1° C.; for Color density ε(120)-ε(0) / ε(0): absorbancy of the polymer not irradiated (initial color): at λmax; for Color fading rate t1/2: time until absorbancy decreases to one-half of [ε(120)-ε(0)]: after 120 seconds irradiation; for Maximum absorption wavelength λMax (developed color tone): polymer after developing color
Method: (§1) 0.05 Parts of the chromene compound obtained in Example 1 was added to 70 parts of a tetraethylene glycol dimethacrylate, 15 parts of a triethylene glycol dimethacrylate, 10 parts of a glycidyl methacrylate and 5 parts of a 2-hydroethyl methacrylate, and was mixed to a sufficient degree. The mixture solution was poured into a mold constituted by a glass plate and a gasket made from an ethylene/vinyl acetate copolymer and then polymerized. The polymerization was conducted by using an air furnace while gradually raising the temperature up to 30° C. to 90° C. over a period of 18 hours, the temperature being maintained at 90° C. for two hours. After the polymerization, the polymer was taken out from the glass mold.
The obtained polymer (2 mm thick) was irradiated with light from a xenon lamp L-2480 (300 W) SHL-100 manufactured by Hamamatsu Photonics Co. through an Aero Mass filter (manufactured by Corning Co.) for 120 seconds under the conditions of 20° C.±1° C., beam intensities of 365 nm=2.4 mW/cm^2 and […]=24 μW/cm^2 on the polymer surface to develop color and to measure photochromic properties. The photochromic properties were expressed as described below.
Maximum absorption wavelength (λmax): λmax of the polymer after it has developed color was found by using a spectrophotometer (instantaneous multi-channel photodetector MCPD1000) manufactured by Otsuka Denshi Kogyo Co.
ε(120): Absorbancy of the polymer using light of a maximum absorption wavelength after it was irradiated under the above-mentioned conditions for 120 seconds.
ε(0): Absorbancy of the polymer that has not been irradiated using light of a wavelength same as the maximum absorption wavelength of light with which the polymer was irradiated.
ε(120)-ε(0): Color density
(§2) Color fading rate [t1/2 ]: Time required by the polymer irradiated for 120 seconds until the absorbancy decreases down to one-half of [ε(120)-ε(0)]. Durability [T1/2 ]: Time required until the absorbency at the maximum absorption wavelength decreases down to 1/2 of the initial absorbency as measured by using a xenon fadometer FAC-25AX-HC manufactured by Suga Shikenki Co.
(§3) The photochromic polymers were obtained in the same manner as described above but using the compounds obtained in Examples 2 to 33 as chromene compounds. For the purpose of comparison, properties of the compounds represented by the following formulas (A), (B), (D) and (E) were also shown in Table 3. [drawing 110]

[2] = Durability T1/2 by xenon fadometer FAC-25AX-HC; format: physicochemical; details: in polymer
Method: as §1, §2, §3

| Compound | Color density ε(120)-ε(0) [1] | Color fading rate t1/2: time until absorbancy decreases to one-half of [ε(120)-ε(0)] [1] | ε(0): absorbancy of the polymer not irradiated (initial color) [1] | Maximum absorption wavelength λMax (developed color tone) [1] | Durability T1/2: time until absorbancy at maximum absorption wavelength decreases to 1/2 of the initial [2] |
| --- | --- | --- | --- | --- | --- |
| Fc1sccc1C1(c2ccc3ccccc3c2)C=Cc2c(ccc3ccccc23)O1 (centres unmarked) [Compound 7] | 1.30 | 1.03 min | 0.05 | 456 nm | 500 h |
| CCOc1c(C2(c3ccco3)C=Cc3c(ccc4cc(OC)c(C(C)=O)cc34)O2)ccc2ccccc12 (centres unmarked) [Compound 12] | 1.34 | 1.1 min | 0.08 | 510 nm | 450 h |
| COc1ccc2c3c(ccc2c1)OC(c1ccccc1)(c1ccccc1)C=C3 [B, reference compound] | 0.74 | 1.5 min | 0.04 | 472 nm | 240 h |
| COc1cc2c(c3ccccc13)C=CC(c1cc(Cl)c3ccccc3c1)(c1cc3ccccc3s1)O2 (centres unmarked) [Compound 29] | 1.30 | 1.37 min | 0.12 | 440 nm | 480 h |
| Fc1cc2ccccc2cc1C1(c2cccs2)C=Cc2c(ccc3ccccc23)O1 (centres unmarked) [Compound 33] | 1.11 | 1.13 min | 0.04 | 460 nm | 495 h |
| Fc1occc1C1(c2ccc3ccccc3c2)C=Cc2c(ccc3ccccc23)O1 (centres unmarked) [Compound 32] | 1.28 | 1.08 min | 0.05 | 450 nm | 490 h |
| C1=CC(c2ccsc2)(c2cc3ccccc3o2)Oc2cc(N3CCCCC3)c3ccccc3c21 (centres unmarked) [Compound 10] | 1.33 | 1.37 min | 0.10 | 460 nm | 510 h |
| Fc1c(C2(c3cccs3)C=Cc3c(ccc4ccccc34)O2)ccc2ccccc12 (centres unmarked) [Compound 1] | 1.50 | 1.2 min | 0.04 | 456 nm | 510 h |
| C1=CC(c2ccco2)(c2cccc3ccccc23)Oc2ccc3ccccc3c21 (centres unmarked) [Compound 3] | 1.49 | 1.38 min | 0.08 | 496 nm | 480 h |

Now from value to compound:

| Color density ε(120)-ε(0) [1] | Color fading rate t1/2: time until absorbancy decreases to one-half of [ε(120)-ε(0)] [1] | ε(0): absorbancy of the polymer not irradiated (initial color) [1] | Maximum absorption wavelength λMax (developed color tone) [1] | Durability T1/2: time until absorbancy at maximum absorption wavelength decreases to 1/2 of the initial [2] | Compound |
| --- | --- | --- | --- | --- | --- |
| 0.86 | 1.25 min | 0.26 | 514 nm | 485 h | Cc1csc(C2(c3scc(C)c3C)C=Cc3c(ccc4ccccc34)O2)c1C [E, reference compound] |
| 1.15 | 1.13 min | 0.04 | 456 nm | 505 h | Fc1ccsc1C1(c2ccc3ccccc3c2)C=Cc2c(ccc3ccccc23)O1 (centres unmarked) [Compound 18] |
| 1.42 | 1.48 min | 0.05 | 506 nm | 480 h | CC(=O)Oc1ccc2c3c(ccc2c1)OC(c1ccc(C)s1)(c1cccc2ccccc12)C=C3 (centres unmarked) [Compound 20] |
| 0.51 | 0.7 min | 0.04 | 466 nm | 490 h | C1=CC(c2ccccc2)(c2cccs2)Oc2ccc3ccccc3c21 (centres unmarked) [D, reference compound] |
| 1.23 | 1.4 min | 0.05 | 502 nm | 470 h | COc1ccc2c3c(ccc2c1)OC(c1cccs1)(c1cccc2ccccc12)C=C3 (centres unmarked) [Compound 17] |
| 1.05 | 0.833 min | 0.06 | 460 nm | 510 h | C1=CC(c2ccco2)(c2csc3ccccc23)Oc2ccc3ccccc3c21 (centres unmarked) [Compound 26] |
| 1.11 | 0.833 min | 0.07 | 466 nm | 540 h | C1=CC(c2ccoc2)(c2ccco2)Oc2ccc3ccccc3c21 (centres unmarked) [Compound 5] |
| 1.46 | 1.25 min | 0.06 | 490 nm | 450 h | COc1ccc2c3c(ccc2c1)OC(c1cncs1)(c1cscc1C)C=C3 (centres unmarked) [Compound 19] |
| 1.02 | 0.75 min | 0.07 | 464 nm | 520 h | C1=CC(c2ccsc2)(c2ccco2)Oc2ccc3ccccc3c21 (centres unmarked) [Compound 6] |
| 1.12 | 1.08 min | 0.05 | 458 nm | 480 h | N#Cc1cc(Cl)c(C2(c3ccoc3)C=Cc3c(ccc4ccccc34)O2)s1 (centres unmarked) [Compound 24] |
